Laboratory results: ChEMBL document CHEMBL4265899, “Trisubstituted thiazoles as potent and selective inhibitors of Plasmodium falciparum protein kinase G (PfPKG)” (Bioorg Med Chem Lett, 2018)

Tests used:
[1] = biological target: T1, Inhibitor of nuclear factor kappa-B kinase subunit beta (Homo sapiens) (UniProt O14920); details: at 100 nM
T1 sequence (whole entry): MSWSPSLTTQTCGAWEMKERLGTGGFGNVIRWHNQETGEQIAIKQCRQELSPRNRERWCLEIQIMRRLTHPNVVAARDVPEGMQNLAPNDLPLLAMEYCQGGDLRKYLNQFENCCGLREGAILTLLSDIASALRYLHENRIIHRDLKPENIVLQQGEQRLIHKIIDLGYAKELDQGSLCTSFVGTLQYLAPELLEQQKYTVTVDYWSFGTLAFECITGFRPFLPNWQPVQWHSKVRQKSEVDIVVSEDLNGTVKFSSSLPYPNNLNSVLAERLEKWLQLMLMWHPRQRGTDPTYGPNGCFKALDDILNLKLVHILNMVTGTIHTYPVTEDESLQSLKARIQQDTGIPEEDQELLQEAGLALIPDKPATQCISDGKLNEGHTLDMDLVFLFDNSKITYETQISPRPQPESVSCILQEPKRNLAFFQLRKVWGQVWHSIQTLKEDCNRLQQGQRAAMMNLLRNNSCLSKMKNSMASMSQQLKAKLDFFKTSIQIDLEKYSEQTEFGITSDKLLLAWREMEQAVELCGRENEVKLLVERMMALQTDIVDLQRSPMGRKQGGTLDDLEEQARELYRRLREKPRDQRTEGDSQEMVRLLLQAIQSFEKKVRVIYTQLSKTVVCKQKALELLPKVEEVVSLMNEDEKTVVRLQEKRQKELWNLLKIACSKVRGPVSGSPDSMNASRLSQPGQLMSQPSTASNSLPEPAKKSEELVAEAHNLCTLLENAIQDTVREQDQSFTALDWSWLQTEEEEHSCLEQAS
Description: Inhibition of human IKKb at 100 nM

[2] = biological target: Serine/threonine-protein kinase Nek2 (Homo sapiens) (UniProt P51955); assay: Inhibition of human NEK2a at 100 nM
[3] = biological target: Tyrosine-protein kinase CSK (Homo sapiens) (UniProt P41240); assay: Inhibition of human CSK at 100 nM
[4] = test system: Plasmodium falciparum; assay: Antimalarial activity against Plasmodium falciparum after 48 hrs by microbeta scintillation counting-based [3H]-hypoxanthine incorporation assay; format: functional, organism-based
[5] = biological target: Receptor tyrosine-protein kinase erbB-4 (Homo sapiens) (UniProt Q15303); assay: Inhibition of human HER4 at 100 nM
[6] = biological target: Interleukin-1 receptor-associated kinase 4 (Homo sapiens) (UniProt Q9NWZ3); assay: Inhibition of human IRAK4 at 100 nM
[7] = biological target: Rho-associated protein kinase 2 (Homo sapiens) (UniProt O75116); assay: Inhibition of human ROCK2 at 100 nM
[8] = biological target: Insulin-like growth factor 1 receptor (Homo sapiens) (UniProt P08069); assay: Inhibition of human IGF1R at 100 nM
[9] = biological target: Serine/threonine-protein kinase STK11 (Homo sapiens) (UniProt Q15831); assay: Inhibition of human LKB1 at 100 nM
[10] = biological target: Ephrin type-A receptor 2 (Homo sapiens) (UniProt P29317); assay: Inhibition of human EPHA2 at 100 nM
[11] = biological target: Tyrosine-protein kinase SYK (Homo sapiens) (UniProt P43405); assay: Inhibition of human SYK at 100 nM
[12] = biological target: Aurora kinase A (Homo sapiens) (UniProt O14965); assay: Inhibition of human Aurora A at 100 nM
[13] = biological target: Receptor-interacting serine/threonine-protein kinase 2 (Homo sapiens) (UniProt O43353); assay: Inhibition of human RIPK2 at 100 nM
[14] = biological target: Serine/threonine-protein kinase Chk2 (Homo sapiens) (UniProt O96017); assay: Inhibition of human CHK2 at 100 nM
[15] = biological target: Calcium/calmodulin-dependent protein kinase type 1 (Homo sapiens) (UniProt Q14012); assay: Inhibition of human CAMK1 at 100 nM
[16] = biological target: Mitogen-activated protein kinase 8 (Homo sapiens) (UniProt P45983); assay: Inhibition of human JNK1 at 100 nM
[17] = biological target: Mitogen-activated protein kinase kinase kinase 1 (Homo sapiens) (UniProt Q13233); assay: Inhibition of human MEKK1 at 100 nM
[18] = biological target: Dual specificity tyrosine-phosphorylation-regulated kinase 1A (Homo sapiens) (UniProt Q13627); assay: Inhibition of human DYRK1A at 100 nM
[19] = biological target: Serine/threonine-protein kinase PAK 4 (Homo sapiens) (UniProt O96013); assay: Inhibition of human PAK4 at 100 nM
[20] = biological target: Serine/threonine-protein kinase BRSK2 (Homo sapiens) (UniProt Q8IWQ3); assay: Inhibition of human BRSK2 at 100 nM
[21] = biological target: Homeodomain-interacting protein kinase 2 (Homo sapiens) (UniProt Q9H2X6); assay: Inhibition of human HIPK2 at 100 nM
[22] = biological target: Insulin receptor (Homo sapiens) (UniProt P06213); assay: Inhibition of human IR at 100 nM
[23] = biological target: Protein kinase C zeta type (Homo sapiens) (UniProt Q05513); assay: Inhibition of human PKCzeta at 100 nM
[24] = biological target: High affinity nerve growth factor receptor (Homo sapiens) (UniProt P04629); assay: Inhibition of human TrkA at 100 nM
[25] = biological target: Casein kinase I isoform alpha (Homo sapiens) (UniProt P48729); assay: Inhibition of human CK1 at 100 nM
[26] = biological target: Vascular endothelial growth factor receptor 2 (Homo sapiens) (UniProt P35968); assay: Inhibition of human VEGFR at 100 nM
[27] = biological target: Casein kinase 2 (Homo sapiens) (UniProt P67870+P68400+P19784+Q8NEV1); assay: Inhibition of human CK2 at 100 nM; format: protein assay
[28] = biological target: Serine/threonine-protein kinase Nek6 (Homo sapiens) (UniProt Q9HC98); assay: Inhibition of human NEK6 at 100 nM
[29] = biological target: MAP kinase-interacting serine/threonine-protein kinase 1 (Homo sapiens) (UniProt Q9BUB5); assay: Inhibition of human MNK1 at 100 nM
[30] = biological target: Serine/threonine-protein kinase PLK1 (Homo sapiens) (UniProt P53350); assay: Inhibition of human PLK1 at 100 nM
[31] = Metabolic stability in mouse liver microsomes assessed as compound remaining after 40 mins; format: ADME, microsome; details: read-out: Stability
[32] = biological target: Aurora kinase B (Homo sapiens) (UniProt Q96GD4); assay: Inhibition of human Aurora B at 100 nM
[33] = biological target: Serine/threonine-protein kinase 26 (Homo sapiens) (UniProt Q9P289); assay: Inhibition of human MST4 at 100 nM

Serine/threonine-protein kinase Nek2 (Homo sapiens), sequence (P51955 whole entry): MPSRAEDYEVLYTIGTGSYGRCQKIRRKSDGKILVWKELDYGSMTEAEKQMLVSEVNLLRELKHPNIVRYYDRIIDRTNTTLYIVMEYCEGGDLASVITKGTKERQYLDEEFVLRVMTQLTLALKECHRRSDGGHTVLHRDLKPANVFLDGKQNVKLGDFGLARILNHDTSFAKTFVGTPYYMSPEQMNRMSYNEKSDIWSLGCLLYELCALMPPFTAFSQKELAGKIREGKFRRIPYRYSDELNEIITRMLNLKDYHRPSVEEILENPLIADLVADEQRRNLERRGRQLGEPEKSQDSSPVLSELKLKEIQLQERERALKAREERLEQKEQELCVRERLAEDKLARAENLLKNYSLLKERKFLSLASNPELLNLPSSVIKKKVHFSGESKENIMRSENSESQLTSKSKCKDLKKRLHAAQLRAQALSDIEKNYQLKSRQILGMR
Serine/threonine-protein kinase BRSK2 (Homo sapiens), sequence (Q8IWQ3 whole entry): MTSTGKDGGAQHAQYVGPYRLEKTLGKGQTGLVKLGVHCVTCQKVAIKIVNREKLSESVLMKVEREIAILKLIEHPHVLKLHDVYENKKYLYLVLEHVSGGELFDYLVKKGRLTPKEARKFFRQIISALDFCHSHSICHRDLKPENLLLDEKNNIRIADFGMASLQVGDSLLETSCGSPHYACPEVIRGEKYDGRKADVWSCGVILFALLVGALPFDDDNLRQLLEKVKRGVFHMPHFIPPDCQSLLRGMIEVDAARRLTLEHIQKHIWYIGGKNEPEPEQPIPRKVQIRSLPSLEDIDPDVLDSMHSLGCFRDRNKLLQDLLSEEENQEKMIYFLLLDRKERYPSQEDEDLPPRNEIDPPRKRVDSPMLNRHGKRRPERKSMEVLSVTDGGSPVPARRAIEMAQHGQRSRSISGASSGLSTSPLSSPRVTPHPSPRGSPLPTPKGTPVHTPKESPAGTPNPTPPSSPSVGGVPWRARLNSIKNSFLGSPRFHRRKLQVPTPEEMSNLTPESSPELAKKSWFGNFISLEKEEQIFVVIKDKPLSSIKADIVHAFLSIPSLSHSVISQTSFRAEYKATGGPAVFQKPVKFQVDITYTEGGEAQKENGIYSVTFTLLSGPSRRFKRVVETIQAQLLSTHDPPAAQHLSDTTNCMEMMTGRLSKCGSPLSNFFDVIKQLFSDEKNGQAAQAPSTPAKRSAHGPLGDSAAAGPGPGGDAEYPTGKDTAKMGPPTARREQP
Homeodomain-interacting protein kinase 2 (Homo sapiens), sequence (Q9H2X6 whole entry, looked up): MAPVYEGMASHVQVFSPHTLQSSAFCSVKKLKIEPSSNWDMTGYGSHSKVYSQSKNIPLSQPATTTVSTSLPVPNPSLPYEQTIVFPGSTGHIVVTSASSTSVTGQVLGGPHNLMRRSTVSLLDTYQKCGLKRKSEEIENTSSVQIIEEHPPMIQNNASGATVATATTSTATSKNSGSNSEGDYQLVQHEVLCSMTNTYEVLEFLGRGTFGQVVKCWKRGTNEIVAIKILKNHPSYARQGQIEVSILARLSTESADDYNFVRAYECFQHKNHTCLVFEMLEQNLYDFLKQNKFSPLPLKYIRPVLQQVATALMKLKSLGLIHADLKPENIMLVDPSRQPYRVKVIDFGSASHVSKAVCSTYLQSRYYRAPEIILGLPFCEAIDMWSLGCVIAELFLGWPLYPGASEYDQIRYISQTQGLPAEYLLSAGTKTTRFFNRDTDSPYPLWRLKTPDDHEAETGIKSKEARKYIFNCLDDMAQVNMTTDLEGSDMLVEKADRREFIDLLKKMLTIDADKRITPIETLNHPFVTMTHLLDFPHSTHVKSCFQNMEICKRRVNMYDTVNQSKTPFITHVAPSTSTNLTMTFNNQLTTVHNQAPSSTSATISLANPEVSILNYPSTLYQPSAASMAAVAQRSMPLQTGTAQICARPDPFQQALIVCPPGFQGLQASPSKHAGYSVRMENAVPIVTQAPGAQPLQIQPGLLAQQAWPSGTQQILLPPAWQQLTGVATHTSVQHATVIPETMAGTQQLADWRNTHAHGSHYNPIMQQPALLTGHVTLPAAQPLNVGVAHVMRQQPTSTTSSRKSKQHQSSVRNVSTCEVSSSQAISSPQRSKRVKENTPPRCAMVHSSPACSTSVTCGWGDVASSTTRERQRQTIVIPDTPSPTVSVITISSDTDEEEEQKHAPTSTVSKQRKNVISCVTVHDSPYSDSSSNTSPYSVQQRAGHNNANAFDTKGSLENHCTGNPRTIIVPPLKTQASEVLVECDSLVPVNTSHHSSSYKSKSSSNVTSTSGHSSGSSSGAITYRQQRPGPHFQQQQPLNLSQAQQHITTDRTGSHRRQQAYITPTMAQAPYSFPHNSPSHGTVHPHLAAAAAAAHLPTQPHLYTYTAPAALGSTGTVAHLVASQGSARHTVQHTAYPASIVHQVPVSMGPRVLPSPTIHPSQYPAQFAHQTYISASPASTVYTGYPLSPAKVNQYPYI
Calcium/calmodulin-dependent protein kinase type 1 (Homo sapiens), sequence (Q14012 whole entry, looked up): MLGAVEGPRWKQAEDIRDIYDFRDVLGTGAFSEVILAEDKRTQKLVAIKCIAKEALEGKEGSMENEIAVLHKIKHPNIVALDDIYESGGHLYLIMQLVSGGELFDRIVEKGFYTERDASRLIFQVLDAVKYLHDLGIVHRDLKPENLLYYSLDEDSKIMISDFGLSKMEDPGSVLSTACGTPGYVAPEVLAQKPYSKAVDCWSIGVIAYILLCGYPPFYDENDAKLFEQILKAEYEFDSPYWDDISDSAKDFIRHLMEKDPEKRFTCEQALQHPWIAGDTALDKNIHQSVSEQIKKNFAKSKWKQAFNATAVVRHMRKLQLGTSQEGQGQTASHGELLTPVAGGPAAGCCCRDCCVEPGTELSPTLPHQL
Receptor tyrosine-protein kinase erbB-4 (Homo sapiens), sequence (Q15303 whole entry): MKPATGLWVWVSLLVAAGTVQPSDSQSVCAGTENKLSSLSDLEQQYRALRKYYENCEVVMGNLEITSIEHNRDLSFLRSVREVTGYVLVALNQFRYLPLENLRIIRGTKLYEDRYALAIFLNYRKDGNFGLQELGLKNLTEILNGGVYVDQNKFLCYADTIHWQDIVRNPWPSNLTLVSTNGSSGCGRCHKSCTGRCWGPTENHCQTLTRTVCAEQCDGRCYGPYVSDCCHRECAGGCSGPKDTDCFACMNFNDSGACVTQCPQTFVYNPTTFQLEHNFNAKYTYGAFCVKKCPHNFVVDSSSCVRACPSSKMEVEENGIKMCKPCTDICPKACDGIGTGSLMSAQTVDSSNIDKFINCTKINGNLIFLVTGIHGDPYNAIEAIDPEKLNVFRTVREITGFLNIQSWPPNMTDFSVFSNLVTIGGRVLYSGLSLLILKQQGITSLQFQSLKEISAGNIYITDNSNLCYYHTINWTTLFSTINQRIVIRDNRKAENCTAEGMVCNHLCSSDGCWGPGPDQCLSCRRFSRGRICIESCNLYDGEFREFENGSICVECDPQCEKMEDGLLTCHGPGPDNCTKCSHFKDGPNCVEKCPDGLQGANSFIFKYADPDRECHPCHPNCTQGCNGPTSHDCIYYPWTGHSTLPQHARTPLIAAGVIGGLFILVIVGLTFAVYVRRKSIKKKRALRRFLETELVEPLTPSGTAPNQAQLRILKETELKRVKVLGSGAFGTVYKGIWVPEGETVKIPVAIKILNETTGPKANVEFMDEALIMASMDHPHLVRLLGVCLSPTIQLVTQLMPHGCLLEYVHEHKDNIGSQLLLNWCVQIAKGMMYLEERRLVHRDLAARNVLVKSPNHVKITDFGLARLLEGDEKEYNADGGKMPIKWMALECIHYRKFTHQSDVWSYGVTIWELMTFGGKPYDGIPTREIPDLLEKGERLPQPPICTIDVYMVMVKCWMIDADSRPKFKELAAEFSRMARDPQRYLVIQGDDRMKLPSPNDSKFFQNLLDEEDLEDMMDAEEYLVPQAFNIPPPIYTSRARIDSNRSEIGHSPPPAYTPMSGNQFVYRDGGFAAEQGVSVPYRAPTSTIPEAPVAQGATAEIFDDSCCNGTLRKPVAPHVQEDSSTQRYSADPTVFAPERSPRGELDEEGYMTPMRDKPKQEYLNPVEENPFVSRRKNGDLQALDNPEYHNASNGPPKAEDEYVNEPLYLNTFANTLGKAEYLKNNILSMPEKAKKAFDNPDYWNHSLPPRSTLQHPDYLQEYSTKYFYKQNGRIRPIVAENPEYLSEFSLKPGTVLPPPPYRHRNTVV
Serine/threonine-protein kinase STK11 (Homo sapiens), sequence (Q15831 whole entry): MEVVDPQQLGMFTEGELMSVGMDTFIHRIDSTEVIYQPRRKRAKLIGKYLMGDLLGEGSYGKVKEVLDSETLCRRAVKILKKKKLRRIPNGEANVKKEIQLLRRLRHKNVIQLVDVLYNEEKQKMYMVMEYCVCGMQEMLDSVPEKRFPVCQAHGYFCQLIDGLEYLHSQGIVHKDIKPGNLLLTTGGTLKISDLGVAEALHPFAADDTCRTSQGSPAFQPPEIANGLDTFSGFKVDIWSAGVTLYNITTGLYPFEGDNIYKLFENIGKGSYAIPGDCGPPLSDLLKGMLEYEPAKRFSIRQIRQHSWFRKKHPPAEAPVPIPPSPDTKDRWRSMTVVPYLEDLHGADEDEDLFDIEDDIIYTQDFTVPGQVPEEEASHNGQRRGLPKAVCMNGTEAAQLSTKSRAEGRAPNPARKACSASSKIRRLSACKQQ
Receptor-interacting serine/threonine-protein kinase 2 (Homo sapiens), sequence (O43353 whole entry): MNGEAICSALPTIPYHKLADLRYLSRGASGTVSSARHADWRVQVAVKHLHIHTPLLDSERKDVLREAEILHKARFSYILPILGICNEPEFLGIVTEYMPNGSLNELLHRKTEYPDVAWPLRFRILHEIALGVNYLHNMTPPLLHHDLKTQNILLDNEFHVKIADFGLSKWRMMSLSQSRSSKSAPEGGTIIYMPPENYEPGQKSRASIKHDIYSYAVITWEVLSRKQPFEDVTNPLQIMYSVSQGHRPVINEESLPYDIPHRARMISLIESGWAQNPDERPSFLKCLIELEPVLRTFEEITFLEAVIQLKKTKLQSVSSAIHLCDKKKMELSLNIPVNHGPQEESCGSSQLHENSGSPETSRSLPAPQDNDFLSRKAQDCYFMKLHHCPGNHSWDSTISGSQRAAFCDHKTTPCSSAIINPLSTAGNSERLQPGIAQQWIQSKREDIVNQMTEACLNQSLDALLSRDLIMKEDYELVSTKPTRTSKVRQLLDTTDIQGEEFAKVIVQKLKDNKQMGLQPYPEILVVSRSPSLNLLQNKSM

CN1CCC(c2nc(-c3cccc(S(C)(=O)=O)c3)c(-c3ccnc(Nc4ccc(N5CCNCC5)cc4)n3)s2)CC1
> 90%: inhibition [5]
< 70%: inhibition [1] | inhibition [2] | inhibition [3] | inhibition [6] | inhibition [7] | inhibition [8] | inhibition [9] | inhibition [10] | inhibition [11] | inhibition [12] | inhibition [14] | inhibition [15] | inhibition [16] | inhibition [17] | inhibition [18] | inhibition [19] | inhibition [20] | inhibition [21] | inhibition [22] | inhibition [23] | inhibition [24] | inhibition [25] | inhibition [26] | inhibition [27] | inhibition [28] | inhibition [29] | inhibition [30] | inhibition [32] | inhibition [33]
70 to 90%: inhibition [13]
89%: remaining at 40 min [31]
105 nM: EC50 [4]

CN1CCC(c2nc(-c3ccc(F)c(NS(C)(=O)=O)c3)c(-c3ccnc(NCC4CC4)n3)s2)CC1
< 70%: inhibition [1] | inhibition [2] | inhibition [3] | inhibition [5] | inhibition [6] | inhibition [7] | inhibition [8] | inhibition [9] | inhibition [10] | inhibition [11] | inhibition [12] | inhibition [13] | inhibition [14] | inhibition [15] | inhibition [16] | inhibition [17] | inhibition [18] | inhibition [19] | inhibition [20] | inhibition [21] | inhibition [22] | inhibition [23] | inhibition [24] | inhibition [25] | inhibition [26] | inhibition [27] | inhibition [28] | inhibition [29] | inhibition [30] | inhibition [32] | inhibition [33]
89%: remaining at 40 min [31]
113 nM: EC50 [4]
